Here are results for 15 molecules from patent publication US7820693B2, “1-(2H)-isoquinolone derivative” (Chugai Seiyaku Kabushiki Kaisha, priority 2005, dated 2010).

Molecules are shown by their SMILES.

In series [1] the test system is human colon cancer cell line HCT116. Nature of the series: Measurement of cell growth inhibitory activity (Cell Counting Kit-8). The class given is cell-based. The conditions noted are these: HCT-116, 96 h, HCT116, 2,000 cells/well, cultured 4 days. On the procedure:
Cancer cell growth inhibitory activity was measured using Cell Counting Kit-8 manufactured by Dojindo Laboratories. The human colon cancer cell line HCT116 obtained from American Type Culture Collection (Virginia, U.S.A) was inoculated in a 96-well culture plate at a concentration of 2,000 cells/well. Thereafter, a certain concentration of compound was added thereto, and the obtained mixture was then cultured at 37° C. in 5% CO2, 95% air for 4 days. On the 4th day of the culture, a Cell Counting Kit-8 solution was added to the culture product, and absorbance (measurement wavelength: 450 nm; reference wavelength: 615 nm) was measured in accordance with protocols included with the kit. Thereafter, 50% growth inhibitory concentration (IC50) was calculated.
(In general: Tetrazolium assays rely on reduction of a dye to a coloured formazan, in cell work by metabolically active cells.)

Series [2] deals with human colon cancer cell line HCT116 transplanted into the inguinal subcutis. The experiment in a line: Measurement of antitumor effect in tumor-bearing mouse. To be noted: HCT116 xenograft, 300 mg/kg orally, twice (day 0 and 7 days after), vs control group. In kind it is in vivo, BALB/c nude mouse. On the procedure:
A representative example of the compound group of the present invention was measured in terms of antitumor effect.
Such antitumor effect was examined, using a tumor-bearing mouse produced by transplanting the human colon cancer cell line HCT116 obtained from American Type Culture Collection (Virginia, U.S.A) into the inguinal subcutis of a BALB/c nude mouse purchased from Charles River Laboratories Japan, Inc. The purchased nude mouse was quarantined for 1 week. Thereafter, approximately 5×10^6 HCT116 cells were transplanted subcutaneously. When the size of a tumor thereof became 200 mm^3, the mouse was subjected to the present experiment.
Each compound was suspended in a solution to be administered, and 0.2 ml of the solution was orally administered. Such administration was carried out twice in total, that is, on the initiation date of administration and 7 days after the first administration. The antitumor effect was calculated as a tumor growth inhibition by comparing the agent-treated group with a control group in terms of tumor growth, on 14 days after the initiation date of administration. Tumor growth inhibition (TGI)=(1−the tumor growth amount of agent-treated group/the tumor growth amount of control group)×100(%) The results are shown in Table 7.

The nature of series [3]: Measurement of solubility (HPLC of filtrate). The conditions noted are these: for solubility at 2 h: thermodynamic from solid.
Procedure: Measurement was carried out by preparing a four-point calibration curve (4,000 μM, 1,000 μM, 250 μM, and 31.3 μM) according to the internal standard method. A sample solution (100% DMSO) was freeze-dried, and each solution was then added thereto. The obtained mixture was stirred for 2 hours. Thereafter, a solution in which the sample had been dissolved was filtrated, and the filtrate was then analyzed with an analyzer. As an analysis method, the filtrate was measured by HPLC (HPLC). As dissolving solutions, a saline solution or a 50 mM sodium citrate-HCl buffer (pH 4.0) solution were used.
[4] abbreviates: 50 mM sodium citrate-HCl buffer (pH 4.0), pH 4, aqueous buffer.

Usually IC50 stands for the point on the concentration scale where inhibition reaches its midpoint. Turning to `O=C1C=C(OCc2ccccc2)CN1c1ccc2cc(-c3ccccc3C(F)(F)F)[nH]c(=O)c2c1` [Example 8, 7-(4-benzyloxy-2-oxo-2,5-dihydropyrrol-1-yl)-3-(2-trifluoromethylphenyl)-2H-isoquinolin-1-one], half-maximal inhibition in series [1] (IC50) required 200 nM.

In series [1], `O=C1N(CCO)CCN1c1ccc2cc(-c3ccccc3C(F)(F)F)[nH]c(=O)c2c1` [Example 9, 7-[3-(2-hydroxyethyl)-2-oxoimidazolidin-1-yl]-3-(2-trifluoromethylphenyl)-2H-isoquinolin-1-one] showed an IC50 of 530 nM.

`O=C(OC[C@@H]1COC(=O)N1c1ccc2cc(-c3ccccc3C(F)(F)F)[nH]c(=O)c2c1)c1ccccc1` [Example 11, (R)-2-oxo-3-[1-oxo-3-(2-trifluoromethylphenyl)-1,2-dihydroisoquinolin-7-yl]oxazolidin-4-ylmethyl benzoate] displayed an IC50 in series [1] of 450 nM.

With `O=C1O[C@@H](CO)CN1c1ccc2cc(-c3ccccc3C(F)(F)F)[nH]c(=O)c2c1` [Example 14, 7-((R)-5-hydroxymethyl-2-oxooxazolidin-3-yl)-3-(2-trifluoromethylphenyl)-2H-isoquinolin-1-one], 300 nM corresponded to half-maximal inhibition in series [1] (IC50). Further, in series [2], the “TGI (%) obtained 14 days after administration” value worked out at 113%.

In turn, `O=C1CCCN1c1ccc2cc(-c3ccccc3C(F)(F)F)[nH]c(=O)c2c1` [Example 15, 7-(2-oxopyrrolidin-1-yl)-3-(2-trifluoromethylphenyl)-2H-isoquinolin-1-one] came in with an IC50 in series [1] of 110 nM.

In turn, `O=C1O[C@H](CO)CN1c1ccc2cc(-c3ccccc3OC(F)(F)F)[nH]c(=O)c2c1` [Example 27, 7-((S)-5-hydroxymethyl-2-oxooxazolidin-3-yl)-3-(2-trifluoromethoxyphenyl)-2H-isoquinolin-1-one] showed an IC50 in series [1] of 21 nM.

The molecule `O=C1OC(CCO)CN1c1ccc2cc(-c3ccccc3C(F)(F)F)[nH]c(=O)c2c1` (stereo not shown) [Example 29, 7-[5-(2-hydroxyethyl)-2-oxooxazolidin-3-yl]-3-(2-trifluoromethylphenyl)-2H-isoquinolin-1-one] came in with a half-inhibitory concentration (IC50) in series [1] of 91 nM.

As to `CC(=O)NCC1CN(c2ccc3cc(-c4ccccc4C(F)(F)F)[nH]c(=O)c3c2)C(=O)O1` (stereo not shown) [Example 32, N-{2-oxo-3-[1-oxo-3-(2-trifluoromethylphenyl)-1,2-dihydroisoquinolin-7-yl]oxazolidin-5-ylmethyl}acetamide], inhibition in series [1] was half-maximal at 530 nM (IC50).

In series [1], `O=C1OC(CN2CCOCC2)CN1c1ccc2cc(-c3ccccc3C(F)(F)F)[nH]c(=O)c2c1` (stereo not shown) [Example 33, 7-(5-morpholin-4-ylmethyl-2-oxooxazolidin-3-yl)-3-(2-trifluoromethylphenyl)-2H-isoquinolin-1-one] gave an IC50 of 290 nM.

Consider `CN1C(=O)N(c2ccc3cc(-c4ccccc4C(F)(F)F)[nH]c(=O)c3c2)C[C@@H]1COCc1ccccc1` [Example 35, 7-((R)-4-benzyloxymethyl-3-methyl-2-oxoimidazolidin-1-yl)-3-(2-trifluoromethylphenyl)-2H-isoquinolin-1-one], for which, in series [1], the IC50 came to 960 nM.

In turn, `CN1C(=O)N(c2ccc3cc(-c4ccccc4C(F)(F)F)[nH]c(=O)c3c2)C[C@@H]1CO` [Example 36, 7-((R)-4-hydroxymethyl-3-methyl-2-oxoimidazolidin-1-yl)-3-(2-trifluoromethylphenyl)-2H-isoquinolin-1-one] came in with an IC50 in series [1] of 310 nM.

The solubility is the concentration that dissolves in the medium under given conditions. A higher solubility goes with much dissolved substance. As to `CC(C)[C@H](N)C(=O)OC[C@H]1CN(c2ccc3cc(-c4ccccc4C(F)(F)F)[nH]c(=O)c3c2)C(=O)O1.Cl` [Example B9, (R)-2-oxo-3-[1-oxo-3-(2-trifluoromethylphenyl)-1,2-dihydroisoquinolin-7-yl]oxazolidin-5-ylmethyl(S)-2-amino-3-methyl-butanoate hydrochloride], the solubility at 2 h in series [3] (setting [4]) is greater than 2000 µM.

In series [3] (setting [4]), `CNCC(=O)OC[C@@H]1CN(c2ccc3cc(-c4ccccc4C(F)(F)F)[nH]c(=O)c3c2)C(=O)O1.Cl` [Example B20, (S)-2-oxo-3-[1-oxo-3-(2-trifluoromethylphenyl)-1,2-dihydroisoquinolin-7-yl]oxazolidin-5-ylmethyl methylaminoacetate hydrochloride] gave a solubility at 2 h greater than 2000 µM.

Usually Solubility stands for how much of the substance goes into solution per volume. A high value points to a readily soluble substance. In turn, `CC(C)(OC(=O)c1ccccc1C(=O)[O-])[C@@H]1CN(c2ccc3cc(-c4ccccc4C(F)(F)F)[nH]c(=O)c3c2)C(=O)O1.[Na+]` [Example C6] gave a Solubility in series [3] (no asterisk: saline solution, stirred 2 hours) greater than 2000 µM.

With `O=C(OCCOCCOCCOCCOCCOCCO)OC[C@@H]1CN(c2ccc3cc(-c4ccccc4C(F)(F)F)[nH]c(=O)c3c2)C(=O)O1` [Example C45, 2-[2-(2-{2-[2-(2-hydroxyethoxy)ethoxy]ethoxy}ethoxy)ethoxy]ethyl carbonate (S)-2-oxo-3-[1-oxo-3-(2-trifluoromethylphenyl)-1,2-dihydroisoquinolin-7-yl]oxazolidin-5-ylmethyl ester], the solubility at 2 h in series [3] (saline solution, saline or isotonic) is greater than 2000 µM.
